Some results are limits rather than exact numbers.

The nature of series [1]: Skin flux evaluation, Franz Cell Diffusion method. The note with it: film without lidocaine (n=7) vs patch with lidocaine, 32° C., 72-hour period. It counts as in vitro ADME, human. How it is done: The diffusion of lidocaine API and naltrexone from the 4:3 naltrexone: 5-methyl-2-furaldehyde cocrystal in the transdermal patch to the skin was studied using a Franz Cell Diffusion (FCD) method. In the method, transdermal patches were placed on top of heat-separated human cadaver skin. The receptor solution (0.01M phosphate buffer, pH 5.76) was analyzed for lidocaine and naltrexone content over time by HPLC using the methods discussed above. In one set of experiments the method used four transdermal patches (n=4) and was carried out at 32° C. […] In another set of experiments a similar film was prepared as above without lidocaine (Dow Medical Fluid 100-5%/Dow 7-4201-88%/NTX-Co-7%). NTX-Co transdermal flux (n=7) was measured through heat-separated human cadaver skin using Franz Cell Diffusion cells at 32° C.

Series [2] can be described thus: Dynamic vapor sorption (DVS) analysis, Hiden IGAsorp. It counts as physicochemical. How it is done:
Approximately 10 mg of sample was placed into a mesh vapor sorption balance pan and loaded into a Hiden IGAsorp by Hiden. The sample was subjected to a ramping profile from 40-90% relative humidity (RH) at 10% increments, maintaining the sample at each step until a stable weight had been achieved (99.5% step completion). After completion of the sorption cycle, the sample was dried using the same procedure to 0% RH the sample was then subsequently taken back to 40% RH using the same procedure.
A DVS analysis of the 4:3 naltrexone: 5-methyl-2-furaldehyde cocrystal was performed using Hiden IGAsorp method.

Series [3] can be described thus: Solubility of the cocrystal in heptane. It counts as physicochemical. An excerpt:
A drug-in-adhesive transdermal patch of the invention may be manufactured using methods known in the art. The 4:3 naltrexone: 5-methyl-2-furaldehyde cocrystal particles may be incorporated into the drug-in-adhesive layer also using known methods such as melt blending. The 4:3 naltrexone: 5-methyl-2-furaldehyde cocrystal particles may be dispersed in a liquid in which the cocrystal is not soluble or only sparingly soluble (a “non-solvent”) and then added to a solution of the other drug-in-adhesive layer components in that same liquid. Alternatively, the 4:3 naltrexone: 5-methyl-2-furaldehyde cocrystal particles may be dispersed into the solution of the drug-in-adhesive components itself. Use of a non-solvent ensures that the cocrystal retains its crystalline form while forming the drug-in-adhesive layer. For the 4:3 naltrexone: 5-methyl-2-furaldehyde cocrystal, such a liquid will generally be a non-polar organic solvent. An example of such a solvent is heptane in which the 4:3 naltrexone: 5-methyl-2-furaldehyde cocrystal has a solubility of only 0.1 mg/mL at 5° C. and of 0.2 mg/mL at 50° C. Alternatively, the 4:3 naltrexone: 5-methyl-2-furaldehyde cocrystal particles may be incorporated into the drug-in-adhesive layer also using known methods such as melt blending.

Take “4:3 naltrexone: 5-methyl-2-furaldehyde cocrystal”: the transdermal flux result in series [1] is given as “lower in the absence of lidocaine”. Further, the “hygroscopicity (DVS)” value in series [2] (DVS kinetic analysis) is on record as “not hygroscopic”. Besides, the “XRPD pattern of material reclaimed after DVS experiment” value in series [2] (after DVS cycle, compared with FIG. 1) was “same XRPD pattern as in FIG. 1”. For the same substance, in series [2] (ramping 40-90% RH, drying to 0% RH, back to 40% RH), the “mass change (DVS)” value is recorded as under 3%. Further, the solubility in heptane was found to be 100 µg/mL in series [3] (5° C.) and 200 µg/mL in series [3] (50° C.).

These data come from patent US9623017B2 (priority 2014, dated 2017).
